Data published in patent publication US20260151399A1, “COMBINATIONS OF LSD1 INHIBITORS AND MENIN INHIBITORS FOR TREATING CANCER” (ORYZON GENOMICS, S.A., priority 2022, published 2026).

How the values were obtained:
Assay in all cases: Single agent viability assay (96 hours, alamarBlue)
Format in all cases: cell-based
MOLM-13 = settings: for EC50: Homo sapiens, MOLM-13, mean, 96 hours incubation, N=2; for EC50 (range in words) / reduction of viability (compared to vehicle controls): MOLM-13, 96 hours
Method: (§1) Mycoplasma-free AML cell lines were maintained in RPMI 10% FBS medium at 37° C. in a humidified incubator with controlled 5% CO2 atmosphere. Cell freezing and thawing was performed following recommendation from ATCC. Genetic profiling of the cell lines used is available in Table 1.
(§2) Cells were seeded in 96-well plates at the optimal density to guarantee linear growth throughout the assay (8000 cells/well for MV(4;11), 4000 cells/well for MOLM-13 and OCI-AML3) in 50 μL of medium. Each experimental condition was tested in technical triplicates, including medium-only and vehicle-treated controls for background correction and normalization, respectively. After seeding, 50 μL of medium containing 9 serial dilutions of 2×-concentrated compound were added to the cells to obtain 100 μL of cells with 1×-concentrated compound at each dilution (DMSO %<0.5%). Cells were then incubated for 96 hours at 37° C. in a controlled 5% CO2 atmosphere, prior to evaluation of cell viability using alamarBlue™ cell viability reagent (ThermoFisher Scientific, Waltham, MA/USA). AlamarBlue™ is a cell viability indicator that uses the natural reducing power of living cells to convert resazurin to the fluorescent molecule resorufin. Briefly, alamarBlue™ stock solution was diluted 1:20 in the culture medium and after 3 hours incubation fluorescence was measured using a TECAN Infinity 2000 plate reader (Tecan Group Ltd., Mannedorf, CH; 540-570 nm excitation wavelength, 580-610 nm emission wavelength). For each condition, the average fluorescence was calculated from the 3 technical replicates; background correction was calculated from the fluorescence of medium-only controls. Data were analyzed using the GraphPad PRISM® version 9.0.1 (GraphPad Software, Inc., La Jolla, CA/USA) to calculate the best-fitting curves and the EC50 values.

MV(4;11) = settings: for EC50: Homo sapiens, MV4-11, mean, 96 hours incubation, N=2; for EC50 (range in words) / reduction of viability (compared to vehicle controls): MV(4;11), 96 hours
Method: as §1, §2

OCI-AML3 = settings: for EC50: Homo sapiens, OCI-AML-3, mean, 96 hours incubation, N=2
Method: as §1, §2

Compound	EC50 (MOLM-13) [nM]	EC50 (range in words) (MOLM-13)	reduction of viability (compared to vehicle controls) (MOLM-13)	EC50 (MV(4;11)) [nM]	EC50 (range in words) (MV(4;11))	reduction of viability (compared to vehicle controls) (MV(4;11)) [%]	EC50 (OCI-AML3) [nM]	EC50 (range in words) (OCI-AML3; OCI-AML3, 96 hours)	reduction of viability (compared to vehicle controls) (OCI-AML3; OCI-AML3, 96 hours)
CC(C)(C)OC(=O)N[C@@H]1CCCN(Cc2ccnc(C(=O)Nc3ccc(-c4cc5c(N6CCOCC6)ncnc5[nH]4)cc3)c2)C1 [Menin-MLL inhibitor 20, tert-butyl N-[(3R)-1-[[2-[[4-(4-morpholin-4-yl-7H-pyrrolo[2,3-d]pyrimidin-6-yl)phenyl]carbamoyl]pyridin-4-yl]methyl]piperidin-3-yl]carbamate]	714	less potent than SNDX-5613	100%	750	less potent than SNDX-5613	100			
CCN(C(=O)c1cc(F)ccc1Oc1cncnc1N1CC2(CCN(C[C@H]3CC[C@H](NS(=O)(=O)CC)CC3)CC2)C1)C(C)C [revumenib, 2-{[4-(7-{[trans-4-(ethanesulfonamido)cyclohexyl]methyl}-2,7-diazaspiro[3.5]nonan-2-yl)pyrimidin-5-yl]oxy}-N-ethyl-5-fluoro-N-(propan-2-yl)benzamide]	32	nanomolar range	around 70%	9.58	nanomolar range	~100	53.2	nanomolar range	around 50%
N[C@H]1CC[C@H](N[C@@H]2C[C@H]2c2ccccc2)CC1 [iadademstat, (trans)-N1-((1R,2S)-2-phenylcyclopropyl)cyclohexane-1,4-diamine]	0.2			0.16			0.13		
COc1ccc(-c2c(-c3ccc(C#N)c(F)c3)nc(N3CCC(N)CC3)n(C)c2=O)cc1F [pulrodemstat, 4-[2-(4-aminopiperidin-1-yl)-5-(3-fluoro-4-methoxyphenyl)-1-methyl-6-oxo-1,6-dihydropyrimidin-4-yl]-2-fluorobenzonitrile]	1.15			1.1			0.99		
CN1CCN(C(=O)[C@H](CCCN[C@@H]2C[C@H]2c2ccc(F)cc2)NC(=O)c2ccc(-n3ccnn3)cc2)CC1 [bomedemstat, N-[(2S)-5-{[(1R,2S)-2-(4-fluorophenyl)cyclopropyl]amino}-1-(4-methylpiperazin-1-yl)-1-oxopentan-2-yl]-4-(1H-1,2,3-triazol-1-yl)benzamide]	3.55			2.9			1.4		
N#Cc1cc2cc(CN3CCC(Nc4ncnc5sc(CC(F)(F)F)cc45)CC3)ccc2[nH]1 [MI-136, 5-[[4-[[6-(2,2,2-trifluoroethyl)thieno[2,3-d]pyrimidin-4-yl]amino]piperidin-1-yl]methyl]-1H-indole-2-carbonitrile]	1840	less potent than SNDX-5613	100%	593	less potent than SNDX-5613	100			
